Experimental findings from paper PMC3171769, “Catalytical Properties of Free and Immobilized Aspergillus niger Tannase” (Enzyme Research, 2011) are described below.

The experiment concerns T1, tannase (tannin acyl hydrolase, TAH) from Aspergillus niger GH1.
T1 construct: native intracellular enzyme from submerged culture with tannic acid
The experiment is described as follows: HPLC of released gallic acid; Lineweaver-Burk. Type of experiment: biochemical. Conditions: free, partially purified enzyme; 50 mM citrate pH 5.5, 30 °C; read-out: Free tannase / K M. The text has this:
HPLC of released gallic acid; Lineweaver-Burk on tannase (tannin acyl hydrolase, TAH) from Aspergillus niger GH1

Regarding `COC(=O)c1cc(O)c(O)c(O)c1` [methyl gallate], the Km came to 0.433 mM.
